Calls of active or inactive are those of the source.
Columns and labels:
[1] = THP-1 cell cytotoxicity, dose response, cytotoxicity control for Vif-APOBEC3G degradation inhibitor project, THP-1 cells (AID 1117359); type: functional; conditions: Human immunodeficiency virus 1, THP-1
[2] = molecular target: SWI/SNF-related matrix-associated actin-dependent regulator of chromatin subfamily A member 2 (Homo sapiens, UniProt P51531); test: Luminescence-based cell-based high throughput dose response assay to identify activators of the function of SWI/SNF related, matrix associated, actin dependent regulator of chromatin, subfamily a, member 2 (SMARCA2, BRM).; type: functional
Chain of SWI/SNF-related matrix-associated actin-dependent regulator of chromatin subfamily A member 2 (P51531 whole entry): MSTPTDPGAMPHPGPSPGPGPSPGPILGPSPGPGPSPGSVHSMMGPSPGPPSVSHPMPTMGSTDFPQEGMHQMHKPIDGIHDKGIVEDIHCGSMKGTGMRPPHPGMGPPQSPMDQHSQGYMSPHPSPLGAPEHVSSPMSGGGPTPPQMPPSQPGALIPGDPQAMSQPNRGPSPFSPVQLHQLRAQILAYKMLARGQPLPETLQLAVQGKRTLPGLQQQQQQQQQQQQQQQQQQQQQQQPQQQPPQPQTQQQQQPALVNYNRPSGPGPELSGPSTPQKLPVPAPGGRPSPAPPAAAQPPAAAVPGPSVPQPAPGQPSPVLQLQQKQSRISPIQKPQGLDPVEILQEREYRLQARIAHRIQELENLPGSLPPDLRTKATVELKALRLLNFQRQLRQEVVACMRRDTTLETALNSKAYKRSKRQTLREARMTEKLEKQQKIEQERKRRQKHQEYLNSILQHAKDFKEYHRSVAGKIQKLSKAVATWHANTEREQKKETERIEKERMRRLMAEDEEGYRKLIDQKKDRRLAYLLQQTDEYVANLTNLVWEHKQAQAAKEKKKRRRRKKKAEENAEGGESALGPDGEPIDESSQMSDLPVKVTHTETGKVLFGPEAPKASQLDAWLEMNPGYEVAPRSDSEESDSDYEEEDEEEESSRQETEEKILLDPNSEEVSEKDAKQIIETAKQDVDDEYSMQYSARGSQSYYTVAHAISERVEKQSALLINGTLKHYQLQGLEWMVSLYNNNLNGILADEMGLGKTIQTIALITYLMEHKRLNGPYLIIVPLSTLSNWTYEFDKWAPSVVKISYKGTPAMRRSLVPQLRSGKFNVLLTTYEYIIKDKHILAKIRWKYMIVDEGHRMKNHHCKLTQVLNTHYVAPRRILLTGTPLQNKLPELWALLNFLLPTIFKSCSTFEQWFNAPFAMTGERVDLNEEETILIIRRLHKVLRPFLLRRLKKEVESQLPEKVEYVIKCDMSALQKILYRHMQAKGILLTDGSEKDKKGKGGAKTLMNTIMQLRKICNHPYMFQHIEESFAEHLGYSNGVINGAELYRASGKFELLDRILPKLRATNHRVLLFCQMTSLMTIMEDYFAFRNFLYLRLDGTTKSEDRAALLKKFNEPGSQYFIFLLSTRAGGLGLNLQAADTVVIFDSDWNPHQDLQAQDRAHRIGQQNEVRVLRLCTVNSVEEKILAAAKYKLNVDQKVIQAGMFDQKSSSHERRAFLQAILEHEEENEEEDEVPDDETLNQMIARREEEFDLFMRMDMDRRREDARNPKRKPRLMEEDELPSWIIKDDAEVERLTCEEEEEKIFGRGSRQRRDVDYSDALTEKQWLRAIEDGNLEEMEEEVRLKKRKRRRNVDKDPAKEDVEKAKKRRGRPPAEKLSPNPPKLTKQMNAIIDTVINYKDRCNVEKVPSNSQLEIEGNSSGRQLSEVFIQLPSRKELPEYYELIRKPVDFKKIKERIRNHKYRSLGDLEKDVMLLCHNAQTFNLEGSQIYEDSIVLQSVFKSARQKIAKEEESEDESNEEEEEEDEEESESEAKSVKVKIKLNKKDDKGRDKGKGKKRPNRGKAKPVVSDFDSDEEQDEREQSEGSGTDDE

[3] = Counterscreen for activators of the function of SWI/SNF related, matrix associated, actin dependent regulator of chromatin, subfamily a, member 2 (SMARCA2, BRM): Luminescence-based cell-based high throughput dose response assay to identify non-selective compounds using the VP16 reporter assay.; type: functional
Coagulation factor XII = molecular target: T1, Coagulation factor XII (Homo sapiens, UniProt P00748); type: functional;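 note: activated factor XIIa alpha cleaving a fluorogenic AMC peptide substrate; inhibitor potency from loss of enzyme activity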
T1 sequence (P00748 whole entry): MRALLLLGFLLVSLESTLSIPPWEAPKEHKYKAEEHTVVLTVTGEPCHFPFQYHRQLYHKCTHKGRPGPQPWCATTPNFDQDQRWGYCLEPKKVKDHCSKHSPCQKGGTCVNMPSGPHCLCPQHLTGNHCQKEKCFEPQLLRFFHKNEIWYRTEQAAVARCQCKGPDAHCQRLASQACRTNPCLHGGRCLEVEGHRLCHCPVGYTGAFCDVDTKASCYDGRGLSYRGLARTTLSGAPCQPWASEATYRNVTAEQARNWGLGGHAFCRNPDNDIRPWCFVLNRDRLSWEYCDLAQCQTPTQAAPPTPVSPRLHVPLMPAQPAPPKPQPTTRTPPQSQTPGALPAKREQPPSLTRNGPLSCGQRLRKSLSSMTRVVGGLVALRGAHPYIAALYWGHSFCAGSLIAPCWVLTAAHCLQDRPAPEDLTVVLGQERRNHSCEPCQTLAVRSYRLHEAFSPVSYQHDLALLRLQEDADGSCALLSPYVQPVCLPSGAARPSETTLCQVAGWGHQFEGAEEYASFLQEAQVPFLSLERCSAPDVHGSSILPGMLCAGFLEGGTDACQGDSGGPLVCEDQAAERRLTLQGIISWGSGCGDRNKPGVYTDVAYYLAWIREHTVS

[4] = molecular target: T2, Low molecular weight phosphotyrosine protein phosphatase (Homo sapiens, UniProt P24666); type: functional; conditions: read-out: IC50_Mean
T2 sequence (P24666 whole entry): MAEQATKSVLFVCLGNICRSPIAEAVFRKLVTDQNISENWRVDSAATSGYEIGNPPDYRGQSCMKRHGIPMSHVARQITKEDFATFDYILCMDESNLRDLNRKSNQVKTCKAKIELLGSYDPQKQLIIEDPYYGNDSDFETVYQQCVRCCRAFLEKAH

[5] = molecular target: T3, Tyrosine-protein phosphatase non-receptor type 22 (Homo sapiens, UniProt Q9Y2R2); test: LYP phosphatase inhibition for selectivity, dose response, selectivity assay for LMPTP inhibitor project, biochemical, fluorescence, LYP catalytic domain (AID 652006); type: functional; conditions: read-out: IC50_Mean
T3 sequence (Q9Y2R2 whole entry): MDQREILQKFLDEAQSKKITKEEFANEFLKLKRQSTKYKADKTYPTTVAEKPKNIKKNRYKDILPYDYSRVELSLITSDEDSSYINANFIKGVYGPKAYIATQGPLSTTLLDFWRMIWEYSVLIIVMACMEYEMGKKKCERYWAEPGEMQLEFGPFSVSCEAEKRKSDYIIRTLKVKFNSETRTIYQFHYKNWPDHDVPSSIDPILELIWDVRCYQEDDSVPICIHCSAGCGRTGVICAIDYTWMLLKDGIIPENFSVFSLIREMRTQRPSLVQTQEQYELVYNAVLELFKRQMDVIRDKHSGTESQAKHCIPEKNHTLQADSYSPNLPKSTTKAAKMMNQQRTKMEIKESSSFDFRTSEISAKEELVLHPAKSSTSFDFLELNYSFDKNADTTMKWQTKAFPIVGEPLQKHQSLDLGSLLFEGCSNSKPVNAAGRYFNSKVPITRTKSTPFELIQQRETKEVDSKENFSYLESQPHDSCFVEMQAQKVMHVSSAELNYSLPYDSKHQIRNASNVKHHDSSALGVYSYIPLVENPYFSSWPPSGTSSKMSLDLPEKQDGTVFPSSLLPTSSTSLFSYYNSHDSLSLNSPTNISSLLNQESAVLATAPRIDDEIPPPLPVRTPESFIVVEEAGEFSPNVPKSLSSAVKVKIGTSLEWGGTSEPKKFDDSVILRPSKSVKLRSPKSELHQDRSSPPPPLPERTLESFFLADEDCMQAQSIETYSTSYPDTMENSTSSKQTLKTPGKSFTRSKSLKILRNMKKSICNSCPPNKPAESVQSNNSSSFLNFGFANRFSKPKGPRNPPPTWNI

[6] = molecular target: T4, Carboxy-terminal domain RNA polymerase II polypeptide A small phosphatase 1 (Homo sapiens, UniProt Q9GZU7); test: inhibitors of CTDSP1, concentration-response testing, biochemical assay, absorbance-based, actives from ultra-high-throughput screening (AID 540297); type: functional
T4 sequence (Q9GZU7 whole entry): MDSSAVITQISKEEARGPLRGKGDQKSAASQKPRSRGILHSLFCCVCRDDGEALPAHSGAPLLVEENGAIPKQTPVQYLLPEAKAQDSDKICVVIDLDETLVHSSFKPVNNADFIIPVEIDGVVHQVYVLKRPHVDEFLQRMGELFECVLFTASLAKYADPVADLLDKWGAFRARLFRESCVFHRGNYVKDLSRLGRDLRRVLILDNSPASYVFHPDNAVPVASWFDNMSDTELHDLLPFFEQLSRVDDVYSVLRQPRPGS

[7] = molecular target: 72 kDa type IV collagenase (Homo sapiens, UniProt P08253); test: Dose Response validation of uHTS RPN11 inhibitor hits using a MMP-2 Fluorescence assay.; type: functional
Chain of 72 kDa type IV collagenase (P08253 whole entry): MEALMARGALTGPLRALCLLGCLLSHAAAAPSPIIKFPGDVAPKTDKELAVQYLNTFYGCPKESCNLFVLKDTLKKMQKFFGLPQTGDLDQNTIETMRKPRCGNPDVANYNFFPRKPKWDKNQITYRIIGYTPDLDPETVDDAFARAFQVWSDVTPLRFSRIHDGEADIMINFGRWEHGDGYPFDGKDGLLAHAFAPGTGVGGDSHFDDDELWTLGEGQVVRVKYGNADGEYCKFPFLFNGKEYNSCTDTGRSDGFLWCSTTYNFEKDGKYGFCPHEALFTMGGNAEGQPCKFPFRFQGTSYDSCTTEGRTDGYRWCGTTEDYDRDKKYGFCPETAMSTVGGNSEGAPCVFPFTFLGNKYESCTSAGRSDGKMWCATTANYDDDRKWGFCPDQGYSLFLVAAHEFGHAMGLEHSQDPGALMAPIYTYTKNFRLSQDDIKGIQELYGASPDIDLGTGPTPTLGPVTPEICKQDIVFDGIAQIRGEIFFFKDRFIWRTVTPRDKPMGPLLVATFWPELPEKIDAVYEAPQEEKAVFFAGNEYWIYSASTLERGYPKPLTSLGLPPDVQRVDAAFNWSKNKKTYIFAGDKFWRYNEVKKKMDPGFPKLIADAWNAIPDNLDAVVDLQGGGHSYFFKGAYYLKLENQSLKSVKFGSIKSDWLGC

[8] = molecular target: 26S proteasome non-ATPase regulatory subunit 14 (Homo sapiens, UniProt O00487); test: inhibition of proteasome subunit RPN11 – biochemical, fluorescence polarization, uHTS hits, confirmation (AID 602368); type: functional
Chain of 26S proteasome non-ATPase regulatory subunit 14 (O00487 whole entry): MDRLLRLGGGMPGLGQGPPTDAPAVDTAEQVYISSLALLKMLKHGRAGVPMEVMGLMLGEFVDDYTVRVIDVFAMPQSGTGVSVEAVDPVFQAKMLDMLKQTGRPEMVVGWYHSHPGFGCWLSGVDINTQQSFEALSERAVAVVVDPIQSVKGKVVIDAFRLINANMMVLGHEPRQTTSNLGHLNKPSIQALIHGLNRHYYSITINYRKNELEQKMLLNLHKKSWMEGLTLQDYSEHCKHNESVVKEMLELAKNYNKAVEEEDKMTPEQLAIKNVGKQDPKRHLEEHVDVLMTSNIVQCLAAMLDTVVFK

Prothrombin = Prothrombin (Bos taurus, UniProt P00735); test: thrombin inhibition, dose response, biochemical, fluorescence polarization, uHTS hits (AID 602369); type: functional
[9] = molecular target: T2, Low molecular weight phosphotyrosine protein phosphatase; type: functional; conditions: read-out: IC50_Mean; remark: listed apart in the source
HEK293 [10] = test: cells; conditions: Homo sapiens
HEK293 [11] = test: NOD2 signaling inhibitors in MDP-stimulated cells, cell-based, uHTS, luminescence (AID 2001); type: functional; conditions: Homo sapiens
Jurkat = test: antigen receptor-induced NF-kB inhibitors, dose response, Jurkat, luciferase reporter, luminescence, B- and T-cell (AID 489004); type: functional, cell-based; conditions: Homo sapiens;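 note: NF-kB luciferase reporter Jurkat cells stimulated with PMA plus ionomycin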
[12] = molecular target: Nucleotide-binding oligomerization domain-containing protein 1 (Homo sapiens, UniProt Q9Y239); test: NOD1 signaling inhibitors, SAR follow-up, revised (AID 2333); type: functional
Chain of Nucleotide-binding oligomerization domain-containing protein 1 (Q9Y239 whole entry, the tested form may be a part): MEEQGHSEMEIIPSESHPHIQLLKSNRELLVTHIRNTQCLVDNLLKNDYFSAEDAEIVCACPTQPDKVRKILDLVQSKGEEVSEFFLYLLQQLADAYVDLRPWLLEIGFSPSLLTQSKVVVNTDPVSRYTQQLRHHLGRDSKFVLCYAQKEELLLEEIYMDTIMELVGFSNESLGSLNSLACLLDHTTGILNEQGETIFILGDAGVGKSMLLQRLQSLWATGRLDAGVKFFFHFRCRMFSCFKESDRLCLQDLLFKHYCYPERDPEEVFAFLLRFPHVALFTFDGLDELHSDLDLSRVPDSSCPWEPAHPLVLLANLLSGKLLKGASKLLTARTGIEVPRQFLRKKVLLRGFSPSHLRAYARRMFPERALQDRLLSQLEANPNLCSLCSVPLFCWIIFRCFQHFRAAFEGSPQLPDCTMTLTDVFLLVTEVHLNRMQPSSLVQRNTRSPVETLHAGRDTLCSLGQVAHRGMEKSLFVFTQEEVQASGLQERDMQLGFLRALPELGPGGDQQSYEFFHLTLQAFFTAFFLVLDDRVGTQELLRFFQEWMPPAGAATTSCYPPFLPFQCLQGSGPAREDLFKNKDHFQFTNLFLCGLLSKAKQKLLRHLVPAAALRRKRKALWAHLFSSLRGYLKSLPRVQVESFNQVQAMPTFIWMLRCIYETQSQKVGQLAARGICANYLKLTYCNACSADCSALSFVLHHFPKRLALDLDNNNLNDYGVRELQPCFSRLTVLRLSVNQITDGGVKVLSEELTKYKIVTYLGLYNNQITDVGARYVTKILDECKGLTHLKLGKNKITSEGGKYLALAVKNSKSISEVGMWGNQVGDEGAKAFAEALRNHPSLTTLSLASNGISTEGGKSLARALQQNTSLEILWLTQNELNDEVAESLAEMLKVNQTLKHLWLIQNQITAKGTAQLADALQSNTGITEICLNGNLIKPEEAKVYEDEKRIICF

[13] = molecular target: Eukaryotic translation initiation factor 4E (Mus musculus, UniProt P63073); test: eIF4E–eIF4G protein interaction inhibitors, dose response, biochemical, TR-FRET (AID 855); type: functional;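 note: potency for disrupting eIF4E binding to eIF4GI seen as loss of FRET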
Chain of Eukaryotic translation initiation factor 4E (P63073 whole entry): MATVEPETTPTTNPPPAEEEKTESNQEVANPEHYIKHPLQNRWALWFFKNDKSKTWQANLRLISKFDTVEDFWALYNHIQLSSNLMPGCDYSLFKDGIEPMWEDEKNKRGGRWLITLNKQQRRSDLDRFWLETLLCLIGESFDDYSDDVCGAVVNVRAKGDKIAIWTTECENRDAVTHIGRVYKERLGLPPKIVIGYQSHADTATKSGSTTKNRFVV

cells = type: functional, cell-based; conditions: HEK-CNG
[14] = inhibitors of clade B AD8 Env fusion, dose response, cell-based, cherry-pick (AID 652062); type: functional;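 note: luciferase signal from cell-cell fusion driven by HIV-1 clade B AD8 Env; potency is for inhibitors of fusion seen as a drop in luminescence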
HEK293 [15] = test: cells; type: functional, cell-based; conditions: Homo sapiens
Tumor necrosis factor = Tumor necrosis factor (Homo sapiens, UniProt P01375); test: TNFa-triggered NF-kB activation inhibitors, SAR follow-up, cell-based, revised (AID 2337); type: functional
Chain of Tumor necrosis factor (P01375 whole entry): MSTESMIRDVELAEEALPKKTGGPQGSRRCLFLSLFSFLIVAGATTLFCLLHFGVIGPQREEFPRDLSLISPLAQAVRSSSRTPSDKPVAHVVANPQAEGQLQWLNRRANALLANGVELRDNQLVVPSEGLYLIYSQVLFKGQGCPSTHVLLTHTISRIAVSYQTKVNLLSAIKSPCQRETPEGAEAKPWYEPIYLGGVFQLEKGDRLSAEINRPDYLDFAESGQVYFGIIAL

HEK293 [16] = test: cells; type: functional, cell-based; conditions: Homo sapiens; remark: listed apart in the source
[17] = off-target signal loss in HeLa-CEM21 co-culture – HeLa F-luc CTL cells, cherry-picked, counter-screen for HIV-1 Env fusion inhibitor project, dose response (AID 652040); type: functional, cell-based;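 note: potency for signal decrease marking cytotoxic or nonspecific inhibition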
Galanin receptor type 3 = Galanin receptor type 3 (Homo sapiens, UniProt O60755); test: Fluorescence-based cell-based primary high throughput dose response assay to identify antagonists of the Galanin Receptor 3 (GalR3).; type: functional
Chain of Galanin receptor type 3 (O60755 whole entry): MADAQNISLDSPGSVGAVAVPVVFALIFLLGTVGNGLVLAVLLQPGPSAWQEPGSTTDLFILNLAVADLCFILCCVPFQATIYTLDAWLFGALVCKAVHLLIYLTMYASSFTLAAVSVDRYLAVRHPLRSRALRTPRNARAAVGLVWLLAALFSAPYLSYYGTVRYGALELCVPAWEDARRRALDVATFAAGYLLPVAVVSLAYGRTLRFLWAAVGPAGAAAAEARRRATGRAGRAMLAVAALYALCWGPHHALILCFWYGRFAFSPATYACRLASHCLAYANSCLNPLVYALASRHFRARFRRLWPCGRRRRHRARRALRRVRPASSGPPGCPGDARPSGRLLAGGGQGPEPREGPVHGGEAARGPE

HEK293 [18] = test: NOD1 signaling inhibitors, primary screen, cell-based, luminescence, uHTS (AID 1578); type: functional; conditions: Homo sapiens
[19] = cytotoxicity in HEK-293T NF-kB-Luc cells, dose response, cytotoxicity control for B/T-cell NF-kB inhibitor project, cell-based, uHTS hits (AID 489019); type: functional;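 note: IC50 reflects cytotoxicity as loss of cell viability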

## CC1(C)CC(=O)C(=NNc2ccc(Br)cc2)C(=O)C1
[1]
  CC50: > 40 µM (active)
[2]
  EC50: > 91.1 µM (inactive)
[3]
  EC50: > 91.1 µM (inactive)
Coagulation factor XII
  IC50: > 50 µM (inactive)

## O=C(/C=C/c1ccccc1Cl)Nc1ccc2c(c1)C(=O)NC2=O
[4]
  IC50: 15.8 µM (active)
[5]
  IC50: 29 µM (inactive)
[6]
  IC50: 3.73 µM (active)
[7]
  IC50: 12 µM (active)
[8]
  IC50: 17.9 µM (active)
Prothrombin
  IC50: 61.6 µM (active)
[9]
  IC50: 12 µM (active)

## CCCCCn1c(=O)[nH]c2cc(C(=O)N3CCN(Cc4ccc5c(c4)OCO5)CC3)ccc2c1=O
HEK293 [10]
  IC50: > 20 µM (inactive)
HEK293 [11]
  IC50: 1.27 µM (active)
Jurkat
  IC50: > 80 µM (inactive)
[12]
  IC50: 0.771 µM (active)
[13]
  IC50: > 64 µM (inactive)
cells
  EC50: > 29.9 µM (inactive)
[14]
  AC50: < 0.26 µM (active)
HEK293 [15]
  IC50: 0.97 µM (active)
Tumor necrosis factor
  IC50: 1.18 µM (active)
HEK293 [16]
  IC50: 8.7 µM (active)
[17]
  AC50: > 70 µM (inactive)
Galanin receptor type 3
  IC50: 0.148 µM (active)
HEK293 [18]
  EC50: 0.36 µM (active)
[19]
  IC50: > 80 µM (inactive)
